This is an account of results in ChEMBL document CHEMBL1921700, “Synthesis of novel 3-carboxamide-benzocoumarin derivatives as orally active antithrombotic agents” (Bioorg Med Chem Lett, 2011).

The subject of series [1] is Mus musculus. Description: Ex vivo anticoagulant activity in mouse assessed as prothrombin time in plasma at 30 uM/kg, po after for 3 days. In kind it is functional.
The test system of series [2] is Mus musculus. As to the kind of experiment: Toxicity in mouse assessed as increase in bleeding time at 30 uM/kg, po administered 60 mins prior to tail incision after 3 days relative to aspirin. The conditions noted are these: in vivo. It is filed as organism-based.
The subject of series [3] is Mus musculus. Description: Ex vivo antithrombotic activity in mouse assessed as protection against collagen and adrenaline-induced hind limb paralysis or death at 30 uM/kg, po administered 60 mins prior to thrombotic challenge after 1 hr. In kind it is functional, Hindlimb.
Series [4] deals with Mus musculus. Description: Ex vivo antithrombotic activity in mouse assessed as protection against collagen and adrenaline-induced hind limb paralysis or death at 30 uM/kg, po administered 60 mins prior to thrombotic challenge after 3 days. In kind it is functional, Hindlimb.
In series [5] the test system is Mus musculus. Description: Toxicity in mouse assessed as increase in bleeding time at 30 uM/kg, po administered 60 mins prior to tail incision after 1 hr relative to aspirin. It is filed as organism-based. Conditions: in vivo.

Take `CCCNC(=O)c1cc2cc(C)c3ccccc3c2oc1=O`: in the series with Mus musculus [1], the Time was determined as 10.2 s. The Activity in the series on Mus musculus [2] is given as 55%; in the series on Mus musculus [3] it was 10%; in the series with Mus musculus [4], 20%; in the series with Mus musculus [5], 17%.

With `CNC(=O)c1cc2cc(C)c3ccccc3c2oc1=O`, the Time with Mus musculus [1] was found to be 8.5 s. Besides, the Activity with Mus musculus [2] came to 65%; in the series with Mus musculus [3] it was 35%; with Mus musculus [4], 40%; with Mus musculus [5], 48%.

`CCNC(=O)c1cc2cc(C)c3ccccc3c2oc1=O`: in the series with Mus musculus [1], the Time turned out to be 10.2 s. Further, the Activity with Mus musculus [2] turned out to be 68%; in the series on Mus musculus [3], 30%; in the series with Mus musculus [4] it was 30%; in the series on Mus musculus [5], 45%.

`Cc1cc2cc(C(=O)N(C)C)c(=O)oc2c2ccccc12`: the Time with Mus musculus [1] turned out to be 10 s. Besides, the Activity stood at 100% in the series with Mus musculus [2], 20% in the series on Mus musculus [3], 40% in the series on Mus musculus [4] and 58% in the series with Mus musculus [5].

Consider `Cc1cc2cc(C(=O)NC3CCCCC3)c(=O)oc2c2ccccc12`, for which the Time in the series on Mus musculus [1] was 10.2 s. Also, the Activity stood at 82% with Mus musculus [2], 35% in the series with Mus musculus [3], 40% with Mus musculus [4] and 53% in the series with Mus musculus [5].

`Cc1cc2cc(C(=O)N3CCCCC3)c(=O)oc2c2ccccc12`: the Time with Mus musculus [1] worked out at 9.4 s. The Activity with Mus musculus [2] is listed as 91%; with Mus musculus [3], 20%; in the series on Mus musculus [4], 29%; in the series with Mus musculus [5], 59%.

In the case of `Cc1cc2cc(C(=O)N3CCN(C)CC3)c(=O)oc2c2ccccc12`, the Time with Mus musculus [1] was 8.1 s. Besides, the Activity is recorded as 55% in the series on Mus musculus [2], 10% with Mus musculus [3], 20% with Mus musculus [4] and 17% in the series with Mus musculus [5].

`Cc1cc2cc(C(=O)N3CCOCC3)c(=O)oc2c2ccccc12`: the Time in the series with Mus musculus [1] came to 11.6 s. Also, the Activity in the series on Mus musculus [2] is on record as 100%; in the series on Mus musculus [3] it was 20%; in the series with Mus musculus [4] it was 33%; with Mus musculus [5] it was 33%.

For `Cc1cc2cc(C(=O)NCCCN3CCOCC3)c(=O)oc2c2ccccc12`, the Time in the series with Mus musculus [1] came to 10.2 s. In addition, the Activity in the series on Mus musculus [2] is recorded as 91%; in the series on Mus musculus [3], 30%; in the series on Mus musculus [4], 33%; with Mus musculus [5], 50%.

For `Cc1ccc(NC(=O)c2cc3cc(C)c4ccccc4c3oc2=O)cc1`, the Time in the series on Mus musculus [1] is 9.3 s. For the same compound, the Activity in the series with Mus musculus [2] is 63%; with Mus musculus [3] it was 30%; in the series with Mus musculus [4], 40%; in the series on Mus musculus [5] it was 58%.

For the compound `CNC(=O)c1cc2cc(/C=C/C(=O)c3ccc(C)cc3)c3ccccc3c2oc1=O`, in the series on Mus musculus [1], the Time was 9.9 s. Further, the Activity in the series on Mus musculus [2] is listed as 55%; in the series with Mus musculus [3] it was 20%; in the series on Mus musculus [4] it was 22%; in the series on Mus musculus [5], 17%.

For `CCNC(=O)c1cc2cc(/C=C/C(=O)c3ccc(C)cc3)c3ccccc3c2oc1=O`, in the series on Mus musculus [1], the Time came out at 11.1 s. Besides, the Activity in the series on Mus musculus [2] was 100%; in the series on Mus musculus [3], 40%; in the series on Mus musculus [4], 44%; with Mus musculus [5], 33%.

`CCCNC(=O)c1cc2cc(/C=C/C(=O)c3ccc(C)cc3)c3ccccc3c2oc1=O`: the Time in the series with Mus musculus [1] stood at 10.3 s. The Activity in the series with Mus musculus [2] was 127%; in the series on Mus musculus [3], 40%; in the series on Mus musculus [4], 33%; in the series on Mus musculus [5], 100%.

With `Cc1ccc(C(=O)/C=C/c2cc3cc(C(=O)N(C)C)c(=O)oc3c3ccccc23)cc1`, the Time with Mus musculus [1] amounted to 10.5 s. Besides, the Activity in the series with Mus musculus [2] is listed as 82%; in the series with Mus musculus [3], 30%; in the series with Mus musculus [4], 33%; in the series with Mus musculus [5], 59%.

For `Cc1ccc(C(=O)/C=C/c2cc3cc(C(=O)NC4CCCCC4)c(=O)oc3c3ccccc23)cc1`, the Time with Mus musculus [1] amounted to 10.6 s. Besides, the Activity with Mus musculus [2] is on record as 109%; with Mus musculus [3], 40%; in the series on Mus musculus [4], 44%; with Mus musculus [5] it was 84%.

With `Cc1ccc(C(=O)/C=C/c2cc3cc(C(=O)N4CCCCC4)c(=O)oc3c3ccccc23)cc1`, the Time in the series with Mus musculus [1] turned out to be 9.7 s. Besides, the Activity in the series with Mus musculus [2] was 45%; in the series with Mus musculus [3], 30%; with Mus musculus [4], 42%; in the series on Mus musculus [5], 25%.

For the compound `Cc1ccc(C(=O)/C=C/c2cc3cc(C(=O)N4CCN(C)CC4)c(=O)oc3c3ccccc23)cc1`, the Time in the series with Mus musculus [1] came out at 8.7 s. The Activity with Mus musculus [2] is reported as 36%; in the series with Mus musculus [3], 20%; in the series on Mus musculus [4], 22%; in the series on Mus musculus [5], 34%.

As to `Cc1ccc(C(=O)/C=C/c2cc3cc(C(=O)N4CCOCC4)c(=O)oc3c3ccccc23)cc1`, the Time in the series on Mus musculus [1] worked out at 11.4 s. Also, the Activity was 55% with Mus musculus [2], 20% in the series with Mus musculus [3], 30% in the series on Mus musculus [4] and 17% in the series on Mus musculus [5].

As to `Cc1ccc(C(=O)/C=C/c2cc3cc(C(=O)NCCCN4CCOCC4)c(=O)oc3c3ccccc23)cc1`, the Time in the series on Mus musculus [1] was 11 s. Also, the Activity in the series on Mus musculus [2] worked out at 45%; in the series on Mus musculus [3], 30%; in the series with Mus musculus [4], 33%; in the series on Mus musculus [5], 25%.

Take `Cc1ccc(NC(=O)c2cc3cc(/C=C/C(=O)c4ccc(C)cc4)c4ccccc4c3oc2=O)cc1`: in the series on Mus musculus [1], the Time was found to be 9.5 s. For the same compound, the Activity in the series on Mus musculus [2] was 109%; in the series with Mus musculus [3] it was 40%; in the series on Mus musculus [4], 44%; in the series with Mus musculus [5] it was 83%.

As for `CC(=O)Oc1ccccc1C(=O)O` [ASPIRIN], the Activity in the series on Mus musculus [3] is reported as 37%; with Mus musculus [5], 100%.

On to `CC(=O)CC(c1ccccc1)c1c(O)c2ccccc2oc1=O` (stereo not given) [WARFARIN], for which the Time in the series with Mus musculus [1] was found to be 116 s. In addition, the Activity is on record as 46% in the series on Mus musculus [2] and 50% with Mus musculus [4].
